Patent publication US20230285601A1, “NON DEGRADABLE RADIO-OPAQUE EMBOLISATION MICROSPHERE” (GUERBET, priority 2019, published 2023)

How the values were obtained:
[1] = Release in vitro of anticancer drugs from the radiopaque microspheres; format: physicochemical; conditions: for Time for 50% release / Time for complete release / % elution at 1 h: microspheres with methacrylic acid, 37° C., 150 rpm; for % elution at 1 h: pH 7.4 buffer
Procedure: To study the release of doxorubicin from the microspheres, the sediments are washed in 10 mL of water, before adding 50 mL of buffer 50 mM Tris-HCl, 0.9% NaCl, pH 7.4. Incubation takes place at 37° C. with stirring. The release of doxorubicin is measured at different times at 490 nm.
To study the release of irinotecan, the microspheres are washed in 10 mL of water, and then 50 mL of PBS (10 mM Na2HPO4, 1.8 mM KH2PO4, 138 mM NaCl, 2.7 mM KCl, pH 7.4) equilibrated at 37° C. is added. The release of the drug over time is measured by reading the absorbance at 370 nm.
To study the release of sunitinib, the microspheres are washed in 10 mL of water, and then 50 mL of PBS equilibrated at 37° C. is added. The release of the drug over time is measured by reading the absorbance at 405 nm.
To study the release of vandetanib, the microspheres are washed in 10 mL of water, and then 50 mL of PBS equilibrated at 37° C. is added. The release of the drug over time is measured by reading the absorbance at 254 nm.

[2] = Loading of anticancer drugs on the radiopaque microspheres; format: physicochemical
Procedure: The tests of loading and controlled release of anticancer drugs were performed on radiopaque microspheres of 100-300 µm sterilized by autoclaving and comprising or not comprising an ionized or ionizable monomer such as methacrylic acid.
The microspheres with methacrylic acid are microspheres from batch 13, the composition of which is given in example 3. The microspheres without methacrylic acid have the same composition as the microspheres from batches L1 and L1Bis described in example 5.
Loading with doxorubicin: the target for loading is 37.5 mg of doxorubicin per ml of microspheres. For this, 3.8 mL of doxorubicin-HCl (Adriblastine®, Pfizer) in solution in water at 2.5 mg/mL is added to 250 µL of wet sediment of microspheres. After mixing by inversion, the suspension is made up to 6 mM with sodium bicarbonate (Lavoisier). Loading is carried out at room temperature and with stirring for one hour. Measurement of the residual amount of doxorubicin (absorbance at 490 nm) present in the supernatants serves for determining the amount of drug loaded on the microspheres.
Loading with irinotecan: the loading target is 50 mg of irinotecan per mL of microspheres. […] After 30 minutes, measurement of the residual amount of irinotecan (absorbance at 370 nm) in the supernatant serves for determining the amount loaded on the microspheres.
Loading with sunitinib: The sediments of the radiopaque microspheres are incubated for 1 h at room temperature in 10 mL of sunitinib in the form of malate (LC Laboratories) at 1 mg/mL in water. […] After stirring for 1 h on a wheel, measurement of the residual amount of sunitinib (absorbance at 405 nm) in the supernatant serves for determining the amount loaded on the microspheres.
Loading with vandetanib: The sediments of the radiopaque microspheres are incubated for 2 h at room temperature in 10 mL of a water/DMSO (1/1) mixture containing 5 mg of vandetanib (LC Laboratories). The residual amount of vandetanib in the supernatants is measured at 254 nm in order to calculate the amount loaded on the microspheres. […]

[3] = 100-300 µm radiopaque microspheres with methacrylic acid (batch 13)

Compound	Time for 50% release [1]	Time for complete release [1]	% elution at 1 h [1]	Loading (mg of drug / mL of wet sediment) [2, 3]	Release (elution in PBS), in words ([1]; compared with irinotecan)	Loading (mg of drug / mL of wet sediment) ([2]; 100-300 µm radiopaque microspheres without methacrylic acid)
CCc1c2c(nc3ccc(OC(=O)N4CCC(N5CCCCC5)CC4)cc13)-c1cc3c(c(=O)n1C2)COC(=O)[C@]3(O)CC [Irinotecan, irinotecan]	1 h	1 days	50%	46 mg of drug / mL of wet sediment		
COc1cccc2c1C(=O)c1c(O)c3c(c(O)c1C2=O)C[C@@](O)(C(=O)CO)C[C@@H]3O[C@H]1C[C@H](N)[C@H](O)[C@H](C)O1 [Doxorubicin, doxorubicin]	24 h	1 week	26%	36.8 mg of drug / mL of wet sediment	slower, being spread over several days	29.8 mg of drug / mL of wet sediment
